Source: the SangsterLogP compilation

Test: method code SF-AS, from Dearden, C.; O'Hara, H. (1978). Partition coefficients of some alkyl derivatives of 4-acetamidophenol. Eur J Med Chem, 13(5)415-419.

| Compound | logP |
| --- | --- |
| CC(=O)Nc1cc(C)c(O)c(C)c1C | 0.82 |
| CC(=O)Nc1ccc(O)c(C)c1 | 0.79 |
| CCc1cc(NC(C)=O)cc(CC)c1O | 1.87 |
| CC(=O)Nc1cc(C(C)(C)C)c(O)c(C(C)(C)C)c1 | 3.18 |
| CC(=O)Nc1ccc(O)c(C(C)C)c1 | 1.71 |
| CC(=O)Nc1ccc(O)c(C)c1C | 0.57 |
| CC(=O)Nc1c(C)c(C)c(O)c(C)c1C | 0.95 |
| CC(=O)Nc1c(C)cc(O)c(C)c1C | 0.75 |
| CC(=O)Nc1ccc(O)cc1C | 0.17 |
| CCc1cc(NC(C)=O)ccc1O | 1.31 |
| CC(=O)Nc1ccc(O)c(C(C)(C)C)c1 | 2.36 |
| CC(=O)Nc1cc(C)c(O)cc1C | 0.6 |
| CC(=O)Nc1cc(C)c(O)c(C)c1 | 1.11 |
| CC(=O)Nc1c(C)cc(O)cc1C | 0.31 |
